Test results published in patent publication US7525013B2, “Soybean selection system based on AEC-resistance” (United Soybean Board, priority 2003, dated 2009).

Columns and labels:
[1] = test system: soybean seeds; assay: Germination of soybean seeds on AEC containing agar plates; assay type: in vivo
Description: (§1) As a first step in the selection, different concentrations of AEC were used to see if it can kill the proliferating soybean somatic embryos as well as tobacco leaves and germinating tobacco and soybean seeds and germinating soybean somatic embryos. The effect of AEC is clearly seen in all these cases with varying concentrations. […] For proliferating soybean somatic embryo concentrations up to 1 mM AEC is needed along with 0.0075% methylated seed oil to kill them. To further confirm that AEC is acting on the above mentioned tissues, the E. coli DHDPS gene was cloned and put into the binary vector p1201 with the pea RBCs transit peptide under the CaMV 35S promoter.
(§2) An AEC selection system for soybean seeds with precise genetic changes and model system seeds (for rapid system validation) were germinated on 2 mM and 5 mM AEC containing agar plates. On the control plates without AEC all the seeds germinated, however only ˜10% of the soybean seeds germinated on 2 mM AEC plates and none on 5 mM plates.
(§3) To determine whether AEC can be developed as a selectable marker for soybeans the effect of different concentrations of AEC was examined on the germination of soybean seeds and matured soybean somatic embryos and on proliferating soybean somatic embryos. The effect of AEC is clearly seen in all these cases with varying concentrations. The effect of AEC was also examined as a herbicide against pigweed, foxtail and tobacco.

[2] = test system: tobacco seeds; assay: Germination of tobacco seeds; assay type: in vivo; conditions: germinating tobacco seeds
Description: as §1

[3] = test system: model system seeds; assay: Germination of model system seeds on AEC containing agar plates; assay type: in vivo; conditions: 2 mM and 5 mM AEC agar plates
Description: as §2

[4] = test system: germinating soybean somatic embryos; assay: Germination of soybean somatic embryos; assay type: cell-based
Description: as §1
The effect of AEC on soybean somatic embryos were checked at two stages (1) during the germination (2) during proliferation. The AEC effect during germination was very effective with concentrations above 100 μM were enough to prevent the germination completely.
as §3

[5] = test system: proliferating soybean somatic embryos; assay: Killing / growth inhibition of proliferating soybean somatic embryos; assay type: cell-based
Description: as §1
However, selection during proliferation is always a better way as selected clones can be proliferated and the untransformed embryos can be killed in the earlier stages itself. Unfortunately concentrations up to 20 mM were not sufficient to kill most of the proliferating embryos, though some of the embryos turned yellowish and developed brown spots, but many of them continued to proliferate like controls even after two changes of the medium, once every 15 days. To find out if surfactants can help in AEC absorption during proliferation a methylated seed oil based surfactant was used. […] It was determined that a 0.005% concentration is suitable to use with AEC. […] The cultures on plates with 20 mM AEC died in 4 days indicating solid medium selection can be useful.
(§4) Spray studies have been done using major dicot and monocot weeds, pigweed (Amaranthus retroflexus) and giant foxtail (Setaria faberi) in addition to tobacco. These experiments using 7 to 10 day old seedlings show 20 mM AEC is lethal to pigweed, foxtail and tobacco.

[6] = test system: pigweed (Amaranthus retroflexus); assay: Herbicide spray study on pigweed; assay type: in vivo
Description: as §4
(§5) A major dicot and monocot weed of tobacco, pigweed (Amaranthus retroflexus) and giant foxtail (Setaria faberi) was used in addition to a model crop plant, tobacco. […] For larger plants grown in the green house 20 mM lysine and threonine or 40 mM lysine alone are needed for effective weed control. To increase uptake of these compounds, up to 0.2% Silwett (surfactant) was used. Silwett at 0.5% and above kills the plants. Silwett was not found to be a very effective surfactant. Studies with cultured cells and seedlings indicate that 100 μM levels of AEC are effective for selection.

[7] = test system: giant foxtail (Setaria faberi); assay: Herbicide spray study on giant foxtail; assay type: in vivo
Description: as §4, §5

[8] = test system: tobacco; assay: Herbicide spray study on tobacco; assay type: in vivo
Description: as §4, §5

[9] = test system: cultured cells and seedlings; assay: Selection studies with cultured cells and seedlings; assay type: cell-based
Description: as §5

[10] = test system: E. coli auxotroph AT998 rescued with modified soybean DHPS gene; assay: Growth of E. coli auxotroph rescued with modified soybean DHPS gene on 2-AEC plates; assay type: cell-based; conditions: minimal media plates with 0.5 mM 2-AEC
Source text: To test if the modified soy DHDPS can become insensitive to AEC and whether 18:1 desaturases can function as a 16:1 desaturase, experiments were conduced with E. Coli auxotrophs. A DHDPS auxotroph was obtained from the E. coli genetic center that can be rescued on medium without diaminopimelic acid when transformed with lysine insensitive DHPS and not with the wild type gene. Similarly, the E. coli auxotroph (fabA/fadR mutant) was obtained which can be complimented by C14 and C16 ACP desaturases but not by stearoyl-ACP desaturases. The primers required for cloning were designated and obtained from soybean genes. A suitable E. coli expression vector was obtained to express these genes in the respective auxotrophs.
It was shown in Arabidopsis, and populous deltoidsXpopulus tricho carpa modification of tryptophan53 (W) to Arginine53 (R) made the DHPS enzyme from these two plants insensitive to lysine concentrations up to 1 mM. E. coli auxotroph AT997 was rescued using these modified genes. This tryptophan residue is present in the consensus sequence MSWDEHI (SEQ ID NO: 6) in several plant DHPS genes (Vauterin et al.,2000). […] With our modified soybean DHPS gene we obtained similar results. We also targeted the tryptophan residue present in the consensus sequence MSWDEHI (SEQ ID NO: 6) in the soybean DHPS gene to convert it to arginine.

[11] = biological target: DHPS enzyme of E. coli (Escherichia coli, UniProt P0A6L2); conditions: E. coli DHPS versus plant enzymes; cited from earlier work
DHPS enzyme of E. coli, sequence (P0A6L2 whole entry): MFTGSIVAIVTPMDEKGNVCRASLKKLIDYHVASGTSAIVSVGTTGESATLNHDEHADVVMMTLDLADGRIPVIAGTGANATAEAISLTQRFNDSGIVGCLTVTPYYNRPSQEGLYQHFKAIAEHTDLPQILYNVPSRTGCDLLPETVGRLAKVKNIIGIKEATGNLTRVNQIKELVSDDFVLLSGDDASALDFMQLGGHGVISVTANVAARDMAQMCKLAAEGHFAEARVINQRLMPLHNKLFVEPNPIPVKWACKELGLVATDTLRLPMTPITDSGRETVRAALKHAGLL

[12] = test system: Clones expressing the insensitive plant DHPS enzymes (E. coli auxotroph AT997); conditions: clones expressing lysine insensitive plant DHPS; cited from earlier work
[13] = test system: larger plants grown in the green house; assay: Weed control on larger plants grown in the green house; assay type: in vivo
Description: as §5

[14] = biological target: plant enzymes (DHPS); conditions: read-out: IC50 for lysine; cited from earlier work
[15] = biological target: T1, DHPS enzyme, tryptophan53 (W) to Arginine53 (R) (Arabidopsis thaliana, UniProt Q9LZX6, W116R); conditions: W53R DHPS; cited from earlier work
T1 construct: host or cells: E. coli auxotroph AT997 (clones expressing the plant cDNA)
T1 sequence (Q9LZX6 40-365 W116R): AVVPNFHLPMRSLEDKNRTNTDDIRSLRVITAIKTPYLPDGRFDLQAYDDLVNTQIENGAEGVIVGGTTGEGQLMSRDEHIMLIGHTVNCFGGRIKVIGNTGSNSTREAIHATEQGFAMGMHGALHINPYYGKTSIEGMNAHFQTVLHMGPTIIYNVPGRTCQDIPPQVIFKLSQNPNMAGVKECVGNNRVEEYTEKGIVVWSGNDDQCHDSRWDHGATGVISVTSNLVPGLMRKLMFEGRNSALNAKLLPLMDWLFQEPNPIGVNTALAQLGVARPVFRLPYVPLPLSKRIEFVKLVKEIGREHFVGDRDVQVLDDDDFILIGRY

[16] = test system: DHPS enzyme, tryptophan53 (W) to Arginine53 (R); conditions: W53R DHPS; cited from earlier work

In the case of `NCCSC[C@H](N)C(=O)O` [AEC, S-2-aminoethyl-cysteine], the soybean seeds germinated ([1]; 2 mM AEC agar plates, all seeds germinated on control plates) is reported as roughly 10%, the “effect on germination of soybean seeds” value ([1]; 2.5 mM AEC) is reported as “quite effective” and the soybean seeds germinated ([1]; 5 mM AEC agar plates) is reported as “none”. For the same compound, the “inhibition of seed germination” value ([1]; qualitative) was “can inhibit”, the “AEC concentration required to completely inhibit germination of tobacco seeds” value [2] was 2.5 mM and the “model system seeds germinated” value [3] was “Not a single model system seed germinated”. The “effect on germination of soybean somatic embryos” value ([4]; 100 μM AEC) was “quite effective”, the “AEC concentration sufficient to completely inhibit germination of soybean somatic embryos” value ([4]; Example 1) was 100 μm and the “inhibition of soybean somatic embryos (SSE) germination” value ([4]; qualitative) was “can inhibit”. For the same compound, the “AEC concentration needed to kill proliferating soybean somatic embryos” value ([5]; along with 0.0075% methylated seed oil) was “up to 1 mM”, the “AEC concentration sufficient to kill proliferating soybean somatic embryos” value ([5]; on 1/5th D20 medium (1/5 MS salts, 1/5 B5 vitamins, 20 mg/L 2,4-D)) was 1.5 mM and the “time until cultures died” value ([5]; solid medium plates, 0.2% surfactant, 20 mM AEC) was 4 days. For the same compound, the “state of proliferating embryo cultures” value ([5]; solid medium, 0.2% surfactant, 10 mM AEC, controls behaved the same) was “remained green with growth for two weeks before they died”, the “AEC concentrations not sufficient to kill most of the proliferating embryos” value ([5]; without surfactant, two changes of medium, once every 15 days) was “up to 20 mM” and the “concentration lethal to pigweed” value ([6]; 7 to 10 day old seedlings) was 20 mM. The “concentration that effectively prevented the growth of pig weed” value ([6]; whole plant level) was 20 mM, the “concentration lethal to foxtail” value ([7]; 7 to 10 day old seedlings) was 20 mM and the “concentration sufficient to kill fox tail” value ([7]; whole plant level) was 20 mM. The “concentration lethal to tobacco” value ([8]; 7 to 10 day old seedlings) was 20 mM, the “concentration sufficient to kill tobacco” value ([8]; whole plant level) was 20 mM and the “AEC levels effective for selection” value [9] was 100 µM. The “growth of rescued auxotroph” value [10] was “grows well”, the “fold less sensitive to AEC than plant enzymes” value [11] was 50 fold and the “2-AEC concentration to which clones were resistant” value [12] was 2.5 mM.

In the case of `NCCCC[C@H](N)C(=O)O` [lysine], the “concentration needed for effective weed control” value [13] is listed as 40 mM, the IC50 [14] is listed as 10 µM and the “lysine concentrations to which the modified DHPS enzyme is insensitive” value [15] is listed as “up to 1 mM”. The “lysine concentrations to which the modified DHPS enzyme is insensitive” value [16] was “up to 1 mM”.
